In ChEMBL document CHEMBL5465560, “Selectivity Literature for EUbOPEN Chemogenomic Library” (2024):

How the values were obtained:
[1] = molecular target: Serine/threonine-protein kinase 16 (Homo sapiens, UniProt O75716); conditions: at 10 µM
[2] = molecular target: T1, Mitogen-activated protein kinase 13 (Homo sapiens) (UniProt O15264); test: Selectivity interaction (Kinase panel (DSF assay)) EUB0001558a MAPK13
T1 sequence (whole entry): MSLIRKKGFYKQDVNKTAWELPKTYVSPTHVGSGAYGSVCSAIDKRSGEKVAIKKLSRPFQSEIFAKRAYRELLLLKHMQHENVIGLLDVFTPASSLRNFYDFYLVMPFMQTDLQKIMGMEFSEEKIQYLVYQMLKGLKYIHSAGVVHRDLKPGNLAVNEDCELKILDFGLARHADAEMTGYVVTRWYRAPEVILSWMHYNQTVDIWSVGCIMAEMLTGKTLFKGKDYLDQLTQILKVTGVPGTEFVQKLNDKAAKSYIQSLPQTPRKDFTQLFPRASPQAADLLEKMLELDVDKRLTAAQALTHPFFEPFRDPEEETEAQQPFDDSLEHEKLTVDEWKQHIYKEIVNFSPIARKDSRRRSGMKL

[3] = molecular target: Cyclin-G-associated kinase (Homo sapiens, UniProt O14976); test: Selectivity interaction (Competition-binding assay (DiscoverX)) EUB0000229b GAK
[4] = molecular target: BDNF/NT-3 growth factors receptor (Homo sapiens) (UniProt Q16620); test: Selectivity interaction (KinomeScan (DiscoverX)) EUB0000229b NTRK2; conditions: at 10 µM
Chain of BDNF/NT-3 growth factors receptor (Homo sapiens) (Q16620 32-822 limits assumed): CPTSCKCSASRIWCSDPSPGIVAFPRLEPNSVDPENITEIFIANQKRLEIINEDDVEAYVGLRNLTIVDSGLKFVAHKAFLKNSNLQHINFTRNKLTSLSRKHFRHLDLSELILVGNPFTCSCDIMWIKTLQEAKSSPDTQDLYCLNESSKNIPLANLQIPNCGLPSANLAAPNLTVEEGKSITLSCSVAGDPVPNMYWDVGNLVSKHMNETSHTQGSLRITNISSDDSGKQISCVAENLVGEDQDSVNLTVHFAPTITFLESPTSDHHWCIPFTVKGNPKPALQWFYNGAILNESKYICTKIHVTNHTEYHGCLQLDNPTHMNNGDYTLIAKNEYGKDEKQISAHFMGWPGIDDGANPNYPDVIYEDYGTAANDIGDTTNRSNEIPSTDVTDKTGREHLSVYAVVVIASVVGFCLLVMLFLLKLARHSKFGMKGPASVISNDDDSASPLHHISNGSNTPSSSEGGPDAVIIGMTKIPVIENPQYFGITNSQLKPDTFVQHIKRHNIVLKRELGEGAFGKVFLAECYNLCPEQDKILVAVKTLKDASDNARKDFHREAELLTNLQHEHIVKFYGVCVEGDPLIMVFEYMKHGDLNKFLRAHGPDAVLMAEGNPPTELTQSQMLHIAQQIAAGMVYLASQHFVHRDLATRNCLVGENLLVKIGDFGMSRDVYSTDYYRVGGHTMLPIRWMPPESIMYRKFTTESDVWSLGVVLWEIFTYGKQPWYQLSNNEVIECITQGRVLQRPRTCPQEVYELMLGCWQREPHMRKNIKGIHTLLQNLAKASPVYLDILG

[5] = molecular target: T2, Serine/threonine-protein kinase TAO2 (Homo sapiens) (UniProt Q9UL54); test: Selectivity interaction (ProQinase) EUB0000171b TAOK2
T2 sequence (whole entry): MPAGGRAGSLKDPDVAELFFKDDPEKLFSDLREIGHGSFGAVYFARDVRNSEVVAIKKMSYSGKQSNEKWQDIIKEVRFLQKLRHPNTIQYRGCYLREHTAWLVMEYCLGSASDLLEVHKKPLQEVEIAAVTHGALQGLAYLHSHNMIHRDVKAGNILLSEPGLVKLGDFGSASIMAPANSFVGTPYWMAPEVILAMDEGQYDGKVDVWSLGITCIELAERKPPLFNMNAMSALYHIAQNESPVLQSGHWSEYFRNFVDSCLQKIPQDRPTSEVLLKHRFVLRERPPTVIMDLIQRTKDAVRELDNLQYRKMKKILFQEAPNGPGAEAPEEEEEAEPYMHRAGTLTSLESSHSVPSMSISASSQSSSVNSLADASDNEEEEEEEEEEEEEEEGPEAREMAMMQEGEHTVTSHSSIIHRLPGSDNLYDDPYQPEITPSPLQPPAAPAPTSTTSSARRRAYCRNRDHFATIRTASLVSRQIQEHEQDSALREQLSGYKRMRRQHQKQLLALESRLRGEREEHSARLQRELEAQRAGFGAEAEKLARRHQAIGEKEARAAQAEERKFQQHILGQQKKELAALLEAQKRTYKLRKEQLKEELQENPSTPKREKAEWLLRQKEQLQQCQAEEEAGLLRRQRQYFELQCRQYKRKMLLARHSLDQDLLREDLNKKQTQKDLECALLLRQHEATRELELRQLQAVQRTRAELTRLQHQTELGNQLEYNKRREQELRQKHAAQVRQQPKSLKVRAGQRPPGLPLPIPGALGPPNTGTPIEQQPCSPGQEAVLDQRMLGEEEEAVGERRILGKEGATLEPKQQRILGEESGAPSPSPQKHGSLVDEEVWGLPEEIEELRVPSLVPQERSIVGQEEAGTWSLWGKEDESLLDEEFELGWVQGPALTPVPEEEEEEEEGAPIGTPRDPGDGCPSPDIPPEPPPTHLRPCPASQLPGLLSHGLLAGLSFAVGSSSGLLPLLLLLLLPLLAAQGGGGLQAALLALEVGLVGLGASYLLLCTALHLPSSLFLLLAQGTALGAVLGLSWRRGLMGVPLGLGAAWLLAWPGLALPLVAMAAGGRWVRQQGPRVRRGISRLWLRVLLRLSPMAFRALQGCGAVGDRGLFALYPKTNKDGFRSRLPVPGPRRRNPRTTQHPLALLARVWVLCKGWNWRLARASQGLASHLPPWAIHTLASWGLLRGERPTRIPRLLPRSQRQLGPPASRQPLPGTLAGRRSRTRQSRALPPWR

[6] = molecular target: Mitogen-activated protein kinase 7 (Homo sapiens) (UniProt Q13164); test: Selectivity interaction (ProQinase) EUB0000171b MAPK7
Chain of Mitogen-activated protein kinase 7 (Homo sapiens) (Q13164 2-816 limits assumed): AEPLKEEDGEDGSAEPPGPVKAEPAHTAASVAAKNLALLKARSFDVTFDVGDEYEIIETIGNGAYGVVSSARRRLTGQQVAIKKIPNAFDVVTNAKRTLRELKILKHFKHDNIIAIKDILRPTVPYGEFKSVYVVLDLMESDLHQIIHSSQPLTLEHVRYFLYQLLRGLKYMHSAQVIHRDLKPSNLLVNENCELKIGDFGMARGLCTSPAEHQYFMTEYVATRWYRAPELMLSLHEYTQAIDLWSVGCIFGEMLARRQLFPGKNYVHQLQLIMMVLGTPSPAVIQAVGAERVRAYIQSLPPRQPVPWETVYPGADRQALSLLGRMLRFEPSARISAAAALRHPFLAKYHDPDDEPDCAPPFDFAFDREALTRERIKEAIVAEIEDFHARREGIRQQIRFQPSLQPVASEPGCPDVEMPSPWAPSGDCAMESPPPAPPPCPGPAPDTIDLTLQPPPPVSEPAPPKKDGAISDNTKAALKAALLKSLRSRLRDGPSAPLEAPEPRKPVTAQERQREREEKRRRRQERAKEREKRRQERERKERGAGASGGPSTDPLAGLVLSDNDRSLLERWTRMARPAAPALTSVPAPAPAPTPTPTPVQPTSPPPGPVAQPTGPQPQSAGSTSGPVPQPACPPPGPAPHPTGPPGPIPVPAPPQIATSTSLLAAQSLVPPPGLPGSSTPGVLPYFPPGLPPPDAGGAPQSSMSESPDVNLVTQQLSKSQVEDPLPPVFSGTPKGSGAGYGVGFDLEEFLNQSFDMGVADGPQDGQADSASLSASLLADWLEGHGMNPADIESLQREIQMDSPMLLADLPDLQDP

[7] = molecular target: Substance-P receptor (Homo sapiens) (UniProt P25103); test: Selectivity interaction (Panel of kinases, GPCRs, ion channels and transporters (enzymatic assay)) EUB0000266bCl TACR1
Chain of Substance-P receptor (Homo sapiens) (P25103 whole entry): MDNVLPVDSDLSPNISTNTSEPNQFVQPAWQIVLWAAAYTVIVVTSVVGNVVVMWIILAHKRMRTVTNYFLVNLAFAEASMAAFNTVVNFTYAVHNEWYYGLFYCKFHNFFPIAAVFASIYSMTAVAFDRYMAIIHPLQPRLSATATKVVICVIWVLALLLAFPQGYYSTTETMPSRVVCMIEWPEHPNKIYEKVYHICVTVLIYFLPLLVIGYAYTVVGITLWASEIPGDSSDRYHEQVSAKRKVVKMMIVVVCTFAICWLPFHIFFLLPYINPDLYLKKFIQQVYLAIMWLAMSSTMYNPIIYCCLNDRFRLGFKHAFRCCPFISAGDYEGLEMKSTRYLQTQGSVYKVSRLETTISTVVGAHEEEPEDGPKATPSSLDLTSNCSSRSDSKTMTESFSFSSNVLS

[8] = molecular target: T3, Activin receptor type-1 (Homo sapiens) (UniProt Q04771); conditions: at 10 µM
T3 sequence (whole entry): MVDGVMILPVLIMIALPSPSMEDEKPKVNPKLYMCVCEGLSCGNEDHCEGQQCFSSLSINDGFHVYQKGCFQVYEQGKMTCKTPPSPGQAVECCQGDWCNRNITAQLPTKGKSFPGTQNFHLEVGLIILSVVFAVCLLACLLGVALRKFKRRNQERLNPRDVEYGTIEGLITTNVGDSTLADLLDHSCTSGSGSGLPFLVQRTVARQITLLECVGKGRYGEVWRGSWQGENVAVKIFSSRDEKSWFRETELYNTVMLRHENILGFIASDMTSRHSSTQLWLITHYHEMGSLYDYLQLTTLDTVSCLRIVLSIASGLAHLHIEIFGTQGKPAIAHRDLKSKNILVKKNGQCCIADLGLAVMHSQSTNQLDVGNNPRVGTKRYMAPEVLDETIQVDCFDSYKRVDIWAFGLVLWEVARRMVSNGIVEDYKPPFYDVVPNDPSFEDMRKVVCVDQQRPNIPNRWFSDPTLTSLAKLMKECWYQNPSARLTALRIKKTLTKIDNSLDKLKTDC

[9] = system: Mast/stem cell growth factor receptor Kit (Homo sapiens), P10721 [L576P]; conditions: at 10 µM
Chain of Mast/stem cell growth factor receptor Kit (Homo sapiens), P10721 [L576P] (P10721 whole entry L576P): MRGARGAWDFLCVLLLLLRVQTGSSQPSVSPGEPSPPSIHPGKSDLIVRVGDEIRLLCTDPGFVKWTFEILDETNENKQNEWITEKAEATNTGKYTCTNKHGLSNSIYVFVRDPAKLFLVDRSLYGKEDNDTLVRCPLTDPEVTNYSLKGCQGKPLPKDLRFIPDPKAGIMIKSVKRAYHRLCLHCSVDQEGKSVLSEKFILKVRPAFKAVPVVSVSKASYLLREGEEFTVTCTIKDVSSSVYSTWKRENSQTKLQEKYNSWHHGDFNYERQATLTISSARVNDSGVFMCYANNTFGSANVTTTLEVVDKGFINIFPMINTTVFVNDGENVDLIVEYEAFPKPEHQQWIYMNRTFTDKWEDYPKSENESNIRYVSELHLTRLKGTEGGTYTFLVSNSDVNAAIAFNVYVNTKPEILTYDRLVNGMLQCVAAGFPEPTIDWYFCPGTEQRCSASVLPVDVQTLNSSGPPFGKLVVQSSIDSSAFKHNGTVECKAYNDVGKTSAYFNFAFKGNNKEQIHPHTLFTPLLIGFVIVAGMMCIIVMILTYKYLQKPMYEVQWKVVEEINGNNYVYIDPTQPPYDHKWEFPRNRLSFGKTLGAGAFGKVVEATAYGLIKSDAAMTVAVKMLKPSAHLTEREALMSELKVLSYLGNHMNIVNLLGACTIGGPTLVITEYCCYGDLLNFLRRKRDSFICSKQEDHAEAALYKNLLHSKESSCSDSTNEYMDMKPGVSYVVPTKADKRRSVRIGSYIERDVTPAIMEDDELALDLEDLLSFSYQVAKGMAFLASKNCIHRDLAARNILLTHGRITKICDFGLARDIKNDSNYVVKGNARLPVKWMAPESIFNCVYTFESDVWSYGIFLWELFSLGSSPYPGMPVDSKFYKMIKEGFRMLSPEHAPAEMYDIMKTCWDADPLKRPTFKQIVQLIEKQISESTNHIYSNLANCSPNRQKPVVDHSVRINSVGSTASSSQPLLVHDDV

[10] = molecular target: Mitogen-activated protein kinase 9 (Homo sapiens, UniProt P45984); test: Selectivity interaction (LanthaScreen Eu Kinase Binding Assay) EUB0001632a MAPK9; conditions: at 10 µM
Chain of Mitogen-activated protein kinase 9 (P45984 whole entry, looked up, the tested form may be a part): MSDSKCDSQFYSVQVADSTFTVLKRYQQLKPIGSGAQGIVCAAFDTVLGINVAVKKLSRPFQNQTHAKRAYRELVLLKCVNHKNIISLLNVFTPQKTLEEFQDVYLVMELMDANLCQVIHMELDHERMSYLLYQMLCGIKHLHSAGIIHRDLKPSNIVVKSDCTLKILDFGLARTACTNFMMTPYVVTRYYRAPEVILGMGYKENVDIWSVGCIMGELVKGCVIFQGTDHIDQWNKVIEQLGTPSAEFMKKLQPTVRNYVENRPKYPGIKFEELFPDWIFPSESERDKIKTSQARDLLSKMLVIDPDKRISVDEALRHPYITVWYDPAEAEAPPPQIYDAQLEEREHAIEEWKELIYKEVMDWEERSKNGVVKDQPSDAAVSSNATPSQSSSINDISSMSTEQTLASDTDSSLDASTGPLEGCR

[11] = molecular target: Lethal(3)malignant brain tumor-like protein 3 (Homo sapiens) (UniProt Q96JM7); test: Selectivity interaction (PWWP, WD40, and Tudor domain panel (DSLS measurements, literature)) EUB0000270b L3MBTL3
[12] = molecular target: Ribosomal protein S6 kinase alpha-6 (Homo sapiens, UniProt Q9UK32); test: Selectivity interaction (Kinase panel (Eurofins, enzymatic assay)) EUB0000311b RPS6KA6
Chain of Ribosomal protein S6 kinase alpha-6 (Q9UK32 whole entry): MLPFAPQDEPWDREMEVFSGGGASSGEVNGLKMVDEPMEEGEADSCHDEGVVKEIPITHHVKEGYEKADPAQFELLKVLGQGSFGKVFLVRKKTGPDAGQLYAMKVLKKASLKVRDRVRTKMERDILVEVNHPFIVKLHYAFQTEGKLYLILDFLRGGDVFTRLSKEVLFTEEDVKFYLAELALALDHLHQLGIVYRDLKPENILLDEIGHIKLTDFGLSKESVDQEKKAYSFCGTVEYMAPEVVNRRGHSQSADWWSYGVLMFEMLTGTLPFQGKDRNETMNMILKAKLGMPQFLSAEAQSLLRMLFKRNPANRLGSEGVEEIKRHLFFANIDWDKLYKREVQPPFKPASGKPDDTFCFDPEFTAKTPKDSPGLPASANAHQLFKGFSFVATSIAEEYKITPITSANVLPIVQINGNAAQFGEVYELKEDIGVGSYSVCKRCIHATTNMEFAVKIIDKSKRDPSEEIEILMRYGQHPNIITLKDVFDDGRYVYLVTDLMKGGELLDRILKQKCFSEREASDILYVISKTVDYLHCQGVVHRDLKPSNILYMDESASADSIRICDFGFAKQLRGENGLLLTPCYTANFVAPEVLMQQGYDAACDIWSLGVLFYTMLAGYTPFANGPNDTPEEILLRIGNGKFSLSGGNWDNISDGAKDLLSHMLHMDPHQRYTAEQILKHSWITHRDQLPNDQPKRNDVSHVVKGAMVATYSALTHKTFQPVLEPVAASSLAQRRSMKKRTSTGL

[13] = molecular target: Dual specificity mitogen-activated protein kinase kinase 2 (Homo sapiens) (UniProt P36507); test: Selectivity interaction (Kinase panel (Invitrogen)) EUB0000639a MAP2K2; conditions: at 200 nM
Chain of Dual specificity mitogen-activated protein kinase kinase 2 (Homo sapiens) (P36507 whole entry): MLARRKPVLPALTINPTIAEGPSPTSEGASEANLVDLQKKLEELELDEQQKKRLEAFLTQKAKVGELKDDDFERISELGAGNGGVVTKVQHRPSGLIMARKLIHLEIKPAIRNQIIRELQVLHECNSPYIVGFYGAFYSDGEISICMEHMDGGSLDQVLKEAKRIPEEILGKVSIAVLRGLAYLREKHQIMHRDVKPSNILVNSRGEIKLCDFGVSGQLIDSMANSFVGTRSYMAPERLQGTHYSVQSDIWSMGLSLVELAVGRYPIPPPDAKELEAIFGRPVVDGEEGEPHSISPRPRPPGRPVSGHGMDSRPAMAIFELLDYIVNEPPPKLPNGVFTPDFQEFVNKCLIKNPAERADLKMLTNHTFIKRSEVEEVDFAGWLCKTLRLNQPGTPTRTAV

[14] = molecular target: Cyclin-dependent kinase 9 (Homo sapiens, UniProt P50750); conditions: at 10 µM

Chain of Serine/threonine-protein kinase 16 (O75716 whole entry): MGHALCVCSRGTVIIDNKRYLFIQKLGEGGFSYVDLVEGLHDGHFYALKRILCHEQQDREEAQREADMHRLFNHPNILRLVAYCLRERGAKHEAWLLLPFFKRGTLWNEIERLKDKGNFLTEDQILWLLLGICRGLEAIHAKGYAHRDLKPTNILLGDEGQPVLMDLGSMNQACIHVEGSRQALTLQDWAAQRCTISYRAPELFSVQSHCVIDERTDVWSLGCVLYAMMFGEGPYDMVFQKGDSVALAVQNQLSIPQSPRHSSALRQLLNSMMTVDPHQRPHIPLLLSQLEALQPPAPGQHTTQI

CCN(CC)CCCCNc1ncc2cc(-c3cc(OC)cc(OC)c3)c(NC(=O)NC(C)(C)C)nc2n1
% of control [1]: 100%

CC(C)(O)[C@H](F)CN1Cc2cc(NC(=O)c3cnn4cccnc34)c(N3CCOCC3)cc2C1=O
dTM [2]: -0.3 K

COc1cc(N(C)c2ccnc3ccc(C(F)(F)F)cc23)cc(OC)c1OC
Kd [3]: 7.1 µM | % binding [4]: 100%

C=CC(=O)Nc1cccc(C(=O)Nc2ccc(Nc3cc(-c4[nH]c(SC)nc4C)ccn3)cc2)c1
% of control ([5]; at 1 µM): 38% | % of control ([5]; at 5 µM): 16% | % of control ([6]; at 1 µM): 83% | % of control ([6]; at 5 µM): 73%

CCn1c(-c2nc3cc(C(=O)N4CCCC(N)C4)ccc3n2C)cc2ccccc21 (stereo unspecified)
pXC50 [7]: < 4.4 M

Cc1cc([C@@H](C)Nc2ccccc2C(=O)O)c2nc(N3CCOCC3)cc(=O)n2c1 [AZD-6482]
% of control [8]: 98% | % of control [9]: 95%

Cn1cc(-n2cnc3c(NCc4nc5cc(Cl)c(Cl)cc5[nH]4)nc(N4CCOCC4)nc32)cn1
% of inhibition [10]: -21.2%

Cc1cc(CN)cc(C)c1-c1ncn(C)c1-c1cncn1C
dTagg [11]: 0.2 K

CCc1ccccc1C(=O)Nc1n[nH]c2c(C)c(F)c(C3C(C#N)=C(C)N(C)C(C)=C3C#N)cc12 [BAY-3827]
IC50 [12]: 0.036 µM

CC[C@@H]1[C@H](F)C(=O)N[C@@H]1COc1nccc2cc(C(N)=O)c(OC)cc12 [ZIMLOVISERTIB]
% of inhibition [13]: 13.2%

COCC(=O)NC/C=C/c1ccc2ncnc(Nc3ccc(Oc4ccc(C)nc4)c(C)c3)c2c1 [CP-724714]
% of control [14]: 100%
